Measured values: patent US12559529B2, “NPY2 receptor agonists” (Boehringer Ingelheim International GmbH, priority 2019, dated 2026)
*1 amine or outer side, *2 acyl side, *3 side chain or, on linkers, in order; H or OH if unused. Where a SMILES comes first, the peptide text is derived from it. Side-chain parts run from the residue outwards. The star is where a group is joined. C18 diacid = O=C(O)CCCCCCCCCCCCCCCCC(=O)*; γGlu = O=C(O)[C@H](CCC(=O)[*:2])N[*:1]; Isovaleryl = CC(C)CC(=O)*; AEEA = NCCOCCOCC(=O)O

Each compound was assayed against T1, Human Neuropeptide Y2 Receptor (Homo sapiens, UniProt P49146) (assay: Radioligand binding competition assay (RLB)). Details: Table 3; human 125I-PYY (1-36) 0.02 nM, Y2 receptor membranes; read-out: Ki.
T1 construct: purchased CHEMICON HTS066M
T1 sequence (P49146 1-381): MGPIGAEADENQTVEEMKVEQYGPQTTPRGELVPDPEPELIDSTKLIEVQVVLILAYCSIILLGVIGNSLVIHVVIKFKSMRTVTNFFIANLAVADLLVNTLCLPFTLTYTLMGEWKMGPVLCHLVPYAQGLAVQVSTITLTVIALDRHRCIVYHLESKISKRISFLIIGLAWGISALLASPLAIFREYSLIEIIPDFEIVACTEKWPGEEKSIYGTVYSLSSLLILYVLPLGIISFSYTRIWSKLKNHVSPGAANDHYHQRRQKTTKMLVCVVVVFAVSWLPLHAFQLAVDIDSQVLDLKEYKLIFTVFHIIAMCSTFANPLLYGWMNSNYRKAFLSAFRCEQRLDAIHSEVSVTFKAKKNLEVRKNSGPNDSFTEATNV
In short: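 Peptide dilutions made in pH 7.4 HEPES assay buffer with 0.2% ovalbumin; human Y2 receptor membranes added at 0.5 μg protein/well; plates shaken 2 h at room temperature; reaction stopped by vacuum filtration onto PEI-treated GF/C filters with ice-cold high-salt washes; radioactivity counted by scintillation.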

| SMILES | Ki |
| --- | --- |
| CC(C)CC(=O)N[C@@H](C)C(=O)N1CCC[C@H]1C(=O)N[C@@H](CCC(=O)O)C(=O)N[C@@H](CCCCNC(=O)COCCOCCNC(=O)COCCOCCNC(=O)CC[C@H](NC(=O)CCCCCCCCCCCCCCCCC(=O)O)C(=O)O)C(=O)N1CCC[C@H]1C(=O)NCC(=O)N[C@@H](CCC(=O)O)C(=O)N[C@@H](CCC(=O)O)C(=O)N[C@@H](C)C(=O)N[C@@H](CO)C(=O)N1CCC[C@H]1C(=O)N[C@@H](CCC(=O)O)C(=O)N[C@@H](CCC(=O)O)C(=O)N[C@@H](CC(C)C)C(=O)N[C@@H](CCC(=O)O)C(=O)N[C@@H](CCC(N)=O)C(=O)N[C@@H](Cc1ccc(O)cc1)C(=O)N[C@@H](Cc1ccc(O)cc1)C(=O)N[C@H](C(=O)N[C@@H](CO)C(=O)N[C@@H](CC(C)C)C(=O)N[C@@H](CCCNC(=N)N)C(=O)N[C@@H](Cc1c[nH]cn1)C(=O)N[C@@H](Cc1ccc(O)cc1)C(=O)N[C@@H](Cc1ccc(O)cc1)C(=O)N[C@@H](CC(N)=O)C(=O)N[C@@H](Cc1c[nH]c2ccccc12)C(=O)N[C@@H](CC(C)C)C(=O)N[C@H](C(=O)N[C@@H](CCCNC(=N)N)C(=O)N[C@@H](CCC(N)=O)C(=O)N[C@@H](CCCNC(=N)N)C(=O)N[C@@H](Cc1ccc(O)cc1)C(N)=O)[C@@H](C)O)C(C)C [Compound 224, N{alpha-4}-(3-methylbutanoyl)-N{epsilon-7}-[2-(2-{2-[2-(2-{2-[(4S)-4-carboxy-4-(17-carboxyheptadecanamido)butanamido]ethoxy}ethoxy)acetamido]ethoxy}ethoxy)acetamido]-[4A,7K,11E,18E,19Q,22V,28Y,30W,31L]hPYY (4-36)] (Isovaleryl-APEK([AEEA-AEEA-γGlu-C18 diacid])PGEEASPEELEQYYVSLRHYYNWLTRQRY-NH2) | 4.64 nM |
| CC(C)CC(=O)N[C@@H](C)C(=O)N1CCC[C@H]1C(=O)N[C@@H](CCC(=O)O)C(=O)N[C@@H](CCCCNC(=O)COCCOCCNC(=O)COCCOCCNC(=O)CC[C@H](NC(=O)CCCCCCCCCCCCCCCCC(=O)O)C(=O)O)C(=O)N1CCC[C@H]1C(=O)N[C@@H](CCC(=O)O)C(=O)N[C@@H](CCC(=O)O)C(=O)N[C@@H](C)C(=O)N[C@@H](C)C(=O)N[C@@H](CO)C(=O)N1CCC[C@H]1C(=O)N[C@@H](CCC(=O)O)C(=O)N[C@@H](CCC(=O)O)C(=O)N[C@H](C(=O)N[C@@H](CCC(N)=O)C(=O)N[C@@H](CCCNC(=N)N)C(=O)N[C@@H](Cc1ccc(O)cc1)C(=O)N[C@@H](Cc1ccc(O)cc1)C(=O)N[C@H](C(=O)N[C@@H](CO)C(=O)N[C@@H](CC(C)C)C(=O)N[C@@H](CCCNC(=N)N)C(=O)N[C@@H](Cc1c[nH]cn1)C(=O)N[C@@H](Cc1ccc(O)cc1)C(=O)N[C@@H](Cc1ccc(O)cc1)C(=O)N[C@@H](CC(N)=O)C(=O)N[C@@H](Cc1c[nH]c2ccccc12)C(=O)N[C@@H](CC(C)C)C(=O)N[C@H](C(=O)N[C@@H](CCCNC(=N)N)C(=O)N[C@@H](CCC(N)=O)C(=O)N[C@@H](CCCNC(=N)N)C(=O)N[C@@H](Cc1ccc(O)cc1)C(N)=O)[C@@H](C)O)C(C)C)[C@@H](C)O [Compound 226, N{alpha-4}-(3-methylbutanoyl)-N{epsilon-7}-[2-(2-{2-[2-(2-{2-[(4S)-4-carboxy-4-(17-carboxyheptadecanamido)butanamido]ethoxy}ethoxy)acetamido]ethoxy}ethoxy)acetamido]-[4A,7K,9E,11A,17T,18Q,22V,28Y,30W,31L]hPYY (4-36)] | 1.21 nM |

Results, then the compound that gave them:

| Ki | SMILES |
| --- | --- |
| 12.3 nM | CC(C)CC(=O)N[C@@H](C)C(=O)N1CCC[C@H]1C(=O)N[C@@H](CCC(=O)O)C(=O)N[C@@H](CCCCNC(=O)COCCOCCNC(=O)COCCOCCNC(=O)CC[C@H](NC(=O)CCCCCCCCCCCCCCCCC(=O)O)C(=O)O)C(=O)N[C@@H](C)C(=O)N[C@@H](CCC(=O)O)C(=O)N[C@@H](CCC(=O)O)C(=O)N[C@@H](CC(=O)O)C(=O)N[C@@H](C)C(=O)N[C@@H](CO)C(=O)N1CCC[C@H]1C(=O)N[C@@H](CCC(=O)O)C(=O)N[C@@H](CCC(=O)O)C(=O)N[C@@H](CC(C)C)C(=O)N[C@@H](CCC(=O)O)C(=O)N[C@@H](CCC(N)=O)C(=O)N[C@@H](Cc1ccc(O)cc1)C(=O)N[C@@H](Cc1ccc(O)cc1)C(=O)N[C@H](C(=O)N[C@@H](CO)C(=O)N[C@@H](CC(C)C)C(=O)N[C@@H](CCCNC(=N)N)C(=O)N[C@@H](Cc1c[nH]cn1)C(=O)N[C@@H](Cc1ccc(O)cc1)C(=O)N[C@@H](Cc1ccc(O)cc1)C(=O)N[C@@H](CC(N)=O)C(=O)N[C@@H](Cc1c[nH]c2ccccc12)C(=O)N[C@@H](CC(C)C)C(=O)N[C@H](C(=O)N[C@@H](CCCNC(=N)N)C(=O)N[C@@H](CCC(N)=O)C(=O)N[C@@H](CCCNC(=N)N)C(=O)N[C@@H](Cc1ccc(O)cc1)C(N)=O)[C@@H](C)O)C(C)C [Compound 227, N{alpha-4}-(3-methylbutanoyl)-N{epsilon-7}-[2-(2-{2-[2-(2-{2-[(4S)-4-carboxy-4-(17-carboxyheptadecanamido)butanamido]ethoxy}ethoxy)acetamido]ethoxy}ethoxy)acetamido]-[4A,7K,8A,9E,18E,19Q,22V,28Y,30W,31L]hPYY (4-36)] (Isovaleryl-APEK([AEEA-AEEA-γGlu-C18 diacid])AEEDASPEELEQYYVSLRHYYNWLTRQRY-NH2) |
| 2.84 nM | CC(C)CC(=O)N[C@@H](C)C(=O)N1CCC[C@H]1C(=O)N[C@@H](CCC(=O)O)C(=O)N[C@@H](CCCCNC(=O)COCCOCCNC(=O)COCCOCCNC(=O)CC[C@H](NC(=O)CCCCCCCCCCCCCCCCC(=O)O)C(=O)O)C(=O)N1CCC[C@H]1C(=O)N[C@@H](CCC(=O)O)C(=O)N[C@@H](CCC(=O)O)C(=O)N[C@@H](CC(=O)O)C(=O)N[C@@H](C)C(=O)N[C@@H](CO)C(=O)N1CCC[C@H]1C(=O)N[C@@H](CCC(=O)O)C(=O)N[C@@H](CCC(=O)O)C(=O)N[C@@H](CC(C)C)C(=O)N[C@@H](CCC(N)=O)C(=O)N[C@@H](CCCNC(=N)N)C(=O)N[C@@H](Cc1ccc(O)cc1)C(=O)N[C@@H](Cc1ccc(O)cc1)C(=O)N[C@H](C(=O)N[C@@H](CO)C(=O)N[C@@H](C)C(=O)N[C@@H](CCCNC(=N)N)C(=O)N[C@@H](Cc1c[nH]cn1)C(=O)N[C@@H](Cc1ccc(O)cc1)C(=O)N[C@@H](Cc1ccc(O)cc1)C(=O)N[C@@H](CC(N)=O)C(=O)N[C@@H](Cc1c[nH]c2ccccc12)C(=O)N[C@@H](CC(C)C)C(=O)N[C@H](C(=O)N[C@@H](CCCNC(=N)N)C(=O)N[C@@H](CCC(N)=O)C(=O)N[C@@H](CCCNC(=N)N)C(=O)N[C@@H](Cc1ccc(O)cc1)C(N)=O)[C@@H](C)O)C(C)C [Compound 229, N{alpha-4}-(3-methylbutanoyl)-N{epsilon-7}-[2-(2-{2-[2-(2-{2-[(4S)-4-carboxy-4-(17-carboxyheptadecanamido)butanamido]ethoxy}ethoxy)acetamido]ethoxy}ethoxy)acetamido]-[4A,7K,9E,18Q,22V,24A,28Y,30W,31L]hPYY (4-36)] |
| 0.81 nM | CC(C)CC(=O)N[C@@H](C)C(=O)N1CCC[C@H]1C(=O)N[C@@H](C)C(=O)N[C@@H](CCCCNC(=O)COCCOCCNC(=O)COCCOCCNC(=O)CC[C@H](NC(=O)CCCCCCCCCCCCCCCCC(=O)O)C(=O)O)C(=O)N1CCC[C@H]1C(=O)N1CCC[C@H]1C(=O)N[C@@H](CCC(=O)O)C(=O)N[C@@H](CC(=O)O)C(=O)N[C@@H](C)C(=O)N[C@@H](CO)C(=O)N1CCC[C@H]1C(=O)N[C@@H](CCC(=O)O)C(=O)N[C@@H](CCC(=O)O)C(=O)N[C@@H](CC(C)C)C(=O)N[C@@H](CCC(N)=O)C(=O)N[C@@H](CCCNC(=N)N)C(=O)N[C@@H](Cc1ccc(O)cc1)C(=O)N[C@@H](Cc1ccc(O)cc1)C(=O)N[C@H](C(=O)N[C@@H](CCC(=O)O)C(=O)N[C@@H](CC(C)C)C(=O)N[C@@H](CCCNC(=N)N)C(=O)N[C@@H](Cc1c[nH]cn1)C(=O)N[C@@H](Cc1ccc(O)cc1)C(=O)N[C@@H](Cc1ccc(O)cc1)C(=O)N[C@@H](CC(N)=O)C(=O)N[C@@H](Cc1c[nH]c2ccccc12)C(=O)N[C@@H](CC(C)C)C(=O)N[C@H](C(=O)N[C@@H](CCCNC(=N)N)C(=O)N[C@@H](CCC(N)=O)C(=O)N[C@@H](CCCNC(=N)N)C(=O)N[C@@H](Cc1ccc(O)cc1)C(N)=O)[C@@H](C)O)C(C)C [Compound 232, N{alpha-4}-(3-methylbutanoyl)-N{epsilon-7}-[2-(2-{2-[2-(2-{2-[(4S)-4-carboxy-4-(17-carboxyheptadecanamido)butanamido]ethoxy}ethoxy)acetamido]ethoxy}ethoxy)acetamido]-[4A,6A,7K,9P,18Q,22V,23E,28Y,30W,31L]hPYY (4-36)] |
